The source of these data is patent US9133203B2, “Pyrroloquinazoline compounds” (OREGON HEALTH & SCIENCE UNIVERSITY, priority 2013, dated 2015).

In one data set the test system is MDA-MB-468. Briefly: MTT antiproliferation assay in MDA-MB-468 cells. The class given is cell-based. The note with it: Homo sapiens, concentration that limits growth by 50%, 72 hour incubation, mean ± SD, at least two experiments in duplicate. As to the method: (§1) The newly synthesized selectively mono-N-acylated compounds of series 4 and series 7 were evaluated as potential anticancer agents because compound 1 had been previously shown to display anticancer activity by inhibiting DHFR (Kuyper L F et al, J Med Chem 39, 892-903 (1996); incorporated by reference herein). Compounds of series 2 were not evaluated due to their poor solubility in DMSO. Two triple negative breast cancer (TN BC) cell lines (MDA-MB-231 and MDAMB-468) were selected to evaluate potential anticancer activity of the compounds of series 4 and series 7 by an MTT assay (Li B X et al, Bioorg Med Chem 20, 6811-6820 (2012); incorporated by reference herein.) TNBC represents a unique subtype of breast cancer clinically characterized by the lack of expression of estrogen receptor (ER), progesterone receptor (PR) and human epidermal growth factor receptor 2 (HER2). Subjects with triple negative breast cancer often have a poor prognosis (Kang S P et al, Curr Opin Obstet Gynecol 20, 40-46 (2008) and The Cancer Genome Atlas Network Nature, 490, 61-70 (2012); both of which are incorporated by reference herein). Current treatment options for TNBC are limited and novel agents are needed (Shastry M and Yardley D A, Curr Opin Obstet Gynecol 25, 40-48 (2013); incorporated by reference herein).
(§2) GI50 values represent the concentration that limits the growth of the cancer cells by 50% during a 72 hour incubation period. These are presented as mean±standard deviation of the mean of at least two independent experiments performed in duplicate.
(§3) TMTT assays for MDA-MB-231, MDA-MB-468 and HMEC were performed as described in Li et al, 2012 supra.
For orientation: Formazan colour is commonly taken as a measure of viable cells.

For data set [1], the system named is normal human mammary epithelial cells (HMEC). Put plainly: MTT viability assay in normal human mammary epithelial cells. The class given is cell-based. The note with it: 72-h incubation. As to the method:
FIG. 2 is a plot showing the effect of compound 7f on normal human mammary epithelial cells (HMEC.) HMEC were treated with the indicated concentrations of doxorubicin or 7f for 24 or 72 hours as indicated. Cells treated for 24 hours were further incubated in drug free media for 48 hours. The number of viable cells was determined by an MTT assay.
as §3

Another data set addresses T1, LMNB1 (Homo sapiens, UniProt P20700).
T1 construct: endogenous in cells; host or cells: MDA-MB-468
T1 sequence (P20700 1-586): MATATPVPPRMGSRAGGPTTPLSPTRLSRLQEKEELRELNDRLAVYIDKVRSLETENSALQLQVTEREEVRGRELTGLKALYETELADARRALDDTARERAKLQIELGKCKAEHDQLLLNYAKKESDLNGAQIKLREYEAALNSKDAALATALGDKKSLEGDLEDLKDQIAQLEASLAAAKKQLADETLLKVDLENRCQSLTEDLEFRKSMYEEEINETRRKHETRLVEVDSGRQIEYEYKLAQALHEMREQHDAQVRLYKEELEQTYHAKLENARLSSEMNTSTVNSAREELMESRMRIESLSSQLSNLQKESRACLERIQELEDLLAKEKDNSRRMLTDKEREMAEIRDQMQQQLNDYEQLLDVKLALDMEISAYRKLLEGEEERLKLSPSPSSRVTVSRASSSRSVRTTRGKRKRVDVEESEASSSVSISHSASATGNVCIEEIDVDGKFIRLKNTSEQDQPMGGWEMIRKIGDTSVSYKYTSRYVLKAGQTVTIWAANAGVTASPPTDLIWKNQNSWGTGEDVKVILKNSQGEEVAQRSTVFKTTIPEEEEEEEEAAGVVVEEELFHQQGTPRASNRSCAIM
Put plainly: Chemoproteomic pulldown with probe 10 and Western blot, LMNB1. The note with it: MDA-MB-468 cells, photocrosslinking, streptavidin pulldown, Western blot. Format: binding. As to the method:
(§4) FIG. 5A is a schematic diagram of chemoproteomics experiments described in Example 38 below. MDA-MB-468 cells were treated with probe 10 with or without compound 7f. Then the cells were irradiated by UV followed by cell lysis. The lysates were clicked with a biotin-N3. The biotinylated proteins were pulled down with streptavidin beads. The bound proteins were trypsin-digested for LC-MS/MS analysis or eluted for Western analysis.
(§5) FIG. 5B is an image of a Western blot showing that 7f binds LMNA and LMNB1. The proteins from streptavidin-pulldown prepared as shown in FIG. 5A were subjected to Western blot with antibodies specific for the proteins indicated by the arrows to the right of the figure.
(§6) Unbiased chemical proteomics experiments involving photocrosslinking MDA-MB-468 cells treated with probe compound 10, clicking with a biotin-azide (biotin-N3), streptavidin pulldown and mass spectroscopic analyses identified nuclear lamins as the molecular targets of 7f. Nuclear lamins are type V intermediate filament proteins. In humans, there are three lamin genes (LMNA, LMNB1 and LMNB2) encoding four major proteins: LMNA, LMNC, LMNB1 and LMNB2. To further confirm that lamins are the targets, the biotinylated proteins prepared as shown in FIG. 5A were pulled down and analyzed by Western blot with individual antibodies (FIG. 5B).
Background: In western blotting, separated proteins are transferred to a membrane and probed.

A further data set deals with T2, human DHFR (Homo sapiens, UniProt P00374).
T2 construct: purchased Sigma
T2 sequence (P00374 1-187): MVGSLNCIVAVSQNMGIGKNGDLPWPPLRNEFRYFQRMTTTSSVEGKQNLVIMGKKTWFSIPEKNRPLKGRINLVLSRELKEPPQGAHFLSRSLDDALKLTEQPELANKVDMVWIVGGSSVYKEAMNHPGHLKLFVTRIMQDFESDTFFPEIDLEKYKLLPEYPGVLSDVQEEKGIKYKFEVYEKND
Briefly: In vitro human DHFR inhibition. The note with it: DHFR assay kit, NADPH 60 μM, DHF 50 μM. Format: biochemical. As to the method: The human DHFR assay was done with DHFR assay kit (Sigma) following the manufacturer's instructions with minor modifications. Different concentrations of a test compound were incubated with human DHFR (0.1875 mU) and NADPH (60 μM) in the 1× assay buffer for 2 min at room temperature. Then DHF (50 μM) was added to initiate the reduction reaction, which was immediately monitored by absorbance at 340 nm every 12 s for 3 min. The final reaction volume was 100 μL and the final DMSO concentration was 1%. The reaction velocities were calculated as the slopes from the absorbance-time curves.

For a further data set, the system named is MDA-MB-231. Briefly: MTT antiproliferation assay in MDA-MB-231 cells. The note with it: Homo sapiens, concentration that limits growth by 50%, 72 hour incubation, mean ± SD, at least two experiments in duplicate. Format: cell-based. As to the method:
as §1, §2, §3

For data set [2], the system named is CREB-mediated gene transcription. Put plainly: CREB reporter assay (CRE-RLuc) in HEK 293T cells. The note with it: forskolin 10 μM. Format: cell-based, human. As to the method: FIG. 4 is a plot showing the activity of compound 7f on CREB mediated gene transcription in HEK 293T cells. HEK 293T cells were transfected with a CREB renilla luciferase reporter (CRE-RLuc). Then the cells were treated with increasing concentrations of 7f for 30 min before the addition of forskolin at a final concentration of 10 μM. The cells were further incubated for 5 hours before cell lysis and renilla luciferase activity measurement. The renilla luciferase activity was normalized to the protein concentration of the cell lysates and was expressed as relative luciferase unit (RLU)/μg of proteins.
Inhibition of CREB mediated transcription in HEK 293T cells by a CREB reporter assay was performed as described in Li and Xiao, 2009 supra.
For orientation: In a reporter assay the amount or activity of a reporter protein is the signal.

A further data set concerns LMNA/C. Briefly: Chemoproteomic pulldown with probe 10 and Western blot, LMNA/C. Format: binding, human. The note with it: MDA-MB-468 cells, photocrosslinking, streptavidin pulldown, Western blot. The method, then:
as §4, §5, §6

SMILES strings stand for the structures. Where only a bound is given, the exact number is not on record here.

Turning to `Nc1nc(NC(=O)c2ccc3ccccc3c2)nc2ccc3[nH]ccc3c12` [Compound 7f], the melting point was in the range of 234 to 236 °C. The compound also showed a GI50 with MDA-MB-468 of 0.44 µM. In addition, the “concentration up to which not toxic to normal HMEC” value in data set [1] is at least 5 µM. Besides, at LMNB1, the “competition of probe 10 pulldown of LMNB1” value is “competed”. Besides, the “concentration up to which human DHFR is not inhibited” value on human DHFR is at least 10 µM. The compound further yielded a GI50 with MDA-MB-231 of 1.6 µM. Also, in data set [2], the “concentration up to which CREB-mediated gene transcription is not inhibited” value is at least 10 µM. In addition, the “competition of probe 10 pulldown of LMNA/C” value in the data set on LMNA/C was “competed”.

In general, GI50 refers to the concentration giving 50% growth inhibition. The low end stands for greater sensitivity of the cells, the high end for lower sensitivity of the cells. By melting point is commonly meant the temperature, or range, at which the solid turns liquid.
